From ChEMBL document CHEMBL1201862, “PubChem BioAssay data set” (2004)
Activity calls are given as the source filed them.

Columns and labels:
CHO = CHO cell viability loss, potency – luminescence, cytotoxicity control for TLR9-MyD88 binding inhibitor project, dose response (AID 588339); type: functional, cell-based, hamster; settings: Cricetulus griseus;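 further: CHO cells stably coexpressing TLR9 and MyD88 fusions from primary screen; compound exposure lasted 48 hours before viability readout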
BJ [1] = experiment: growth inhibition of engineered Ras-driven BJ cells – cell-based, alamar blue fluorescence, cherrypicked samples, dose response (AID 2631); type: functional; settings: Homo sapiens;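 further: confirmatory dose-response assay in RAS-dependent BJ fibroblasts engineered with TERT, LT and ST, with cytotoxicity read by fluorescence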
BJ [2] = experiment: BJ-TERT fibroblast viability loss – cell-based, RAS-independent, luminescence, dose response (AID 1933); type: functional; settings: Homo sapiens
[3] = DRD fibroblast viability loss – cell-based, non-viral oncogenic, luminescence, dose response (AID 1934); type: functional; settings: Homo sapiens
H4 = experiment: Luminescence Cell-Based Dose Response HTS to Identify Activators of 5'UTR Stem-Loop Driven Prion Protein mRNA Translation in H4 Neuroglioblastoma Cells. [Related pubchem assays: 1829 (Project Summary), 1814 (Primary HTS)]; type: functional; settings: Homo sapiens
BJ [4] = experiment: BJ-TERT-LT-ST fibroblast viability loss – cell-based, RAS-independent, luminescence, dose response (AID 1935); type: functional; settings: Homo sapiens;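 further: BJ fibroblasts immortalized with TERT plus LT and ST oncogenes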
[5] = target: T1, Replicative DNA helicase DnaB (Mycobacterium tuberculosis, UniProt P9WMR3); experiment: DnaB intein splicing inhibitors, dose response, biochemical, cell-free fluorescence (AID 449749); type: functional
T1 sequence (P9WMR3 whole entry): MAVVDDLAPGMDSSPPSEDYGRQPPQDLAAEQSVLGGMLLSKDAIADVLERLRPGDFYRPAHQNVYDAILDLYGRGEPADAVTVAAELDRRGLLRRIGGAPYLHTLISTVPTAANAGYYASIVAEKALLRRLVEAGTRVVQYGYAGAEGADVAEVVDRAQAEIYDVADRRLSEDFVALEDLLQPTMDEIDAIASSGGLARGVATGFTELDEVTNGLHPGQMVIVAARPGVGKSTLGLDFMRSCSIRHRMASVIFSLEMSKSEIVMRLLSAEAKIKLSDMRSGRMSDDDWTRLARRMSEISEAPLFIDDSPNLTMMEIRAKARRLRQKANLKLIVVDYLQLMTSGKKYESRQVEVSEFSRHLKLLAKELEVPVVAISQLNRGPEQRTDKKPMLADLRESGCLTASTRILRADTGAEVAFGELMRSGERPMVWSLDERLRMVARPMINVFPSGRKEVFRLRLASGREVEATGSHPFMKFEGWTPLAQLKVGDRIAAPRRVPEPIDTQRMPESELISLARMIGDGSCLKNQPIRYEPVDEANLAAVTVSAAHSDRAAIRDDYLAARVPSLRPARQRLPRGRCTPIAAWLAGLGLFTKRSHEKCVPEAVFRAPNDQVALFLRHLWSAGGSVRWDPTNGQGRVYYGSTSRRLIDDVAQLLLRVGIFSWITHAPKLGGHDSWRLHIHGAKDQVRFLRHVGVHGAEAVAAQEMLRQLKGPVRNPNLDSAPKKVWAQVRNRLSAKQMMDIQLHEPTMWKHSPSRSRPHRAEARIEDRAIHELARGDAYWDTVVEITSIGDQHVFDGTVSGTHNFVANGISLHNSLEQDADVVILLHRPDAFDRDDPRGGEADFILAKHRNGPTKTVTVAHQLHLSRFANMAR

BJ [6] = experiment: cells; type: functional, cell-based; settings: Homo sapiens
Beta Lactamase [7] = target: T2, Beta Lactamase (Pseudomonas aeruginosa, UniProt Q932Y6); experiment: BLA reporter interference, concentration series – BLA reporter cells, FRET fluorescence, artefact control for NOD2-RIPK2 interaction inhibitor project, dose response (AID 651552); type: functional, cell-based
T2 sequence (Q932Y6 whole entry): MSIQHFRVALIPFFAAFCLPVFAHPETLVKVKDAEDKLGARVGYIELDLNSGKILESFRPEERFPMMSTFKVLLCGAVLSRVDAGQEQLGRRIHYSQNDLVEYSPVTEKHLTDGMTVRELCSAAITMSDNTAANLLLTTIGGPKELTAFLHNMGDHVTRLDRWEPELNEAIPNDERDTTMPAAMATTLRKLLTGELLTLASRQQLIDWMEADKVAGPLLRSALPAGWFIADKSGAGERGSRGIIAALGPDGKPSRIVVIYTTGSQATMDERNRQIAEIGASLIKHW

[8] = loss of viability in HepG2 cells – cell-based, CellTiter-Glo, cherry-picked, cytotoxicity control for Shn3 inhibitor project, dose response (AID 624134); type: functional
[9] = non-specific 3'UTR reporter inhibition in Clone20-Shn3RL – cell-based, Renilla luciferase, cherry-picked, counter-screen for Shn3 inhibitor project, dose response (AID 624133); type: functional
[10] = Shn3 transcript knock-down in Clone20 cells – cell-based, qPCR, cherry-pick, dose response (AID 743415); type: functional
[11] = EF1alpha-driven Renilla reporter with control 3'UTR suppression – Clone20-Shn3RL cells, dual-Glo, cherry-pick, set 2, counter-screen for Shn3 3'UTR targeting project, dose response (AID 720724); type: functional, cell-based; settings: Dual-Go Shn3RL
[12] = Luminescence Cell-Based Dose Response HTS to Identify Activators of Luciferase Translation or Activity in H4 […] Cells. [Related pubchem assays: 1829 (Project Summary), 1814 (Primary HTS)]; type: functional
Protein RecA = target: T3, Protein RecA (Mycobacterium tuberculosis, UniProt P9WHJ3); experiment: Fluorescence Cell-Free Homogeneous Dose Retest to Identify Inhibitors of RecA-Intein Splicing Activity. [Related pubchem assays (depositor defined):AID2097, AID2223, AID489010, AID492950]; type: functional
T3 sequence (P9WHJ3 whole entry): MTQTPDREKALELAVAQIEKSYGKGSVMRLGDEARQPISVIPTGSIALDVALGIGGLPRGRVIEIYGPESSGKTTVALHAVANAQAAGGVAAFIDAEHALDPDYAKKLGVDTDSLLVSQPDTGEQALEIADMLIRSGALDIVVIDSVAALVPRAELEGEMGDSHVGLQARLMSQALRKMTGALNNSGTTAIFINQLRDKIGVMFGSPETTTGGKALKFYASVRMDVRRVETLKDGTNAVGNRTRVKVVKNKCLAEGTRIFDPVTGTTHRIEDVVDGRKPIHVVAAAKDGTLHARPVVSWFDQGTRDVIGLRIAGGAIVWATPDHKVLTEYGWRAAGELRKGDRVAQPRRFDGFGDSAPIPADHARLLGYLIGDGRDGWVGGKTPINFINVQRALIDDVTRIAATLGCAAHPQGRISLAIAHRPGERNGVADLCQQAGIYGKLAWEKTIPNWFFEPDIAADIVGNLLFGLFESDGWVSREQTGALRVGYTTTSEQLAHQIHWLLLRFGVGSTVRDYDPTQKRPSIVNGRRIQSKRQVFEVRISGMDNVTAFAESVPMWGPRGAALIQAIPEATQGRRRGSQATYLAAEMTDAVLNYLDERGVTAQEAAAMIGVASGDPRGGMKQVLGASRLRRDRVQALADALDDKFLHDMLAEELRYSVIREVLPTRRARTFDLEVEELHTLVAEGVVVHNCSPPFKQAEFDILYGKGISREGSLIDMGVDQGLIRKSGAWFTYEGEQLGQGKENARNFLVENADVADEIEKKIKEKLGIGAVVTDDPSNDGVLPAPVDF

[13] = Fluorescence-based cell-based high throughput dose response assay for inhibitors of the interaction of nucleotide-binding oligomerization domain containing 2 (NOD2) and the receptor-interacting serine-threonine kinase 2 (RIPK2).; type: functional; settings: Homo sapiens
[14] = Shn3 3'UTR reporter signal decrease – cell-based, Clone20 osteoblasts, firefly luciferase, cherry-pick, set 2, Schnurri-3 inhibitor project, dose response (AID 720490); type: functional;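 further: actives lower the luminescence signal as inhibitors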
[15] = Luminescence Cell-Based Dose Confirmation HTS to Identify Activators of 5'UTR Stem-Loop Driven Alpha-Synuclein mRNA Translation in H4 Neuroglioblastoma Cells. [Related pubchem assays: 1829 (Project Summary), 1814 (Primary HTS)]; type: functional
Beta Lactamase [16] = target: T2, Beta Lactamase; experiment: BLA reporter interference, concentration series – BLA reporter cells, FRET fluorescence, artefact control for TLR9-MyD88 binding inhibitor project, dose response (AID 588341); type: cell-based;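 further: cell based assay in CHO-K1 cells stably expressing beta-lactamase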
[17] = HEK-293T viability loss after treatment – luminescence, T-cell screen hits, cytotoxicity control for TCR NF-kB inhibitor project, dose response (AID 489026); type: functional, cell-based;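 further: cells exposed to compound about 14 hours before the viability readout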
[18] = reduction of Shn3 3'UTR-driven luciferase in osteoblasts – cell-based, Clone20 osteoblasts, firefly luciferase, cherry-picked, dose response (AID 624132); type: functional;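 further: firefly luciferase luminescence from reporter carrying the Shn3 3'UTR in osteoblasts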
Caspase-8 = Caspase-8 (Homo sapiens, UniProt Q14790); experiment: inhibitors of purified CASP8 protease – biochemical, Z-IETD-R110 fluorescence, cherry-picked samples, selectivity assay for caspase-6 inhibitor project, dose response (AID 743294)
Caspase-8, sequence (Q14790 217-374 limits assumed): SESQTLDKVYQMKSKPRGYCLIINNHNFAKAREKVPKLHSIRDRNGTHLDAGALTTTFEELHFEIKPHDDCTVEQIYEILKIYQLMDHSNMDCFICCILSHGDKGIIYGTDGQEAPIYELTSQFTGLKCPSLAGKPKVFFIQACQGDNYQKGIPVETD
Caspase-8, sequence (Q14790 385-479 limits assumed): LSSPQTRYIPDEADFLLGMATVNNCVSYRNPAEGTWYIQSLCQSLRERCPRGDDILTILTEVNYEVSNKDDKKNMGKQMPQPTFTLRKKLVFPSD

Caspase-7 = Caspase-7 (Homo sapiens, UniProt P55210); experiment: caspase-7 enzyme inhibition, selectivity check – biochemical, DEVD-R110 fluorescence, cherry-pick, selectivity assay for caspase-6 inhibitor project, dose response (AID 743295); type: functional
Caspase-7, sequence (P55210 24-198 limits assumed): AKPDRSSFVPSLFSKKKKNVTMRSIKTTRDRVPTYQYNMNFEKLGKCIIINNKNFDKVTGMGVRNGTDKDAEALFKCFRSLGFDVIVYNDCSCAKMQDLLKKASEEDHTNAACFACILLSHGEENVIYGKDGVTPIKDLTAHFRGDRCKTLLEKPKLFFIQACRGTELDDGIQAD
Caspase-7, sequence (P55210 207-303 limits assumed): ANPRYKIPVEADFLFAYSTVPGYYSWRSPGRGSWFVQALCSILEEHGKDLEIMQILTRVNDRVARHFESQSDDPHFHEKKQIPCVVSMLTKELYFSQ

Caspase-6 = target: T4, Caspase-6 (Homo sapiens, UniProt P55212); experiment: inhibition of CASP6 peptide cleavage – biochemical, VEID-R110 fluorescence, cherry-pick, dose response (AID 720632)
T4 sequence (P55212 whole entry): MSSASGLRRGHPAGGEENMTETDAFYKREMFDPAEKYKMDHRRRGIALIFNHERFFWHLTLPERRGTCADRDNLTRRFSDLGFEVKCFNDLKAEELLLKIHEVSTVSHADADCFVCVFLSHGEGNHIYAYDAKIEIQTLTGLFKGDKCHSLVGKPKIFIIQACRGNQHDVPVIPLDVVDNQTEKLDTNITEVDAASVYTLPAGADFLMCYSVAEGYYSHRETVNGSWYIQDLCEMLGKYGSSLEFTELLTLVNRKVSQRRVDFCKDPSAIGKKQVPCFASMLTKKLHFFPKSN

[19] = target: T5, Carboxy-terminal domain RNA polymerase II polypeptide A small phosphatase 1 (Homo sapiens, UniProt Q9GZU7); experiment: CTDSP1 inhibitors, concentration-response, biochemical, absorbance readout, ultra-high-throughput screen actives (AID 540297); type: functional
T5 sequence (Q9GZU7 whole entry): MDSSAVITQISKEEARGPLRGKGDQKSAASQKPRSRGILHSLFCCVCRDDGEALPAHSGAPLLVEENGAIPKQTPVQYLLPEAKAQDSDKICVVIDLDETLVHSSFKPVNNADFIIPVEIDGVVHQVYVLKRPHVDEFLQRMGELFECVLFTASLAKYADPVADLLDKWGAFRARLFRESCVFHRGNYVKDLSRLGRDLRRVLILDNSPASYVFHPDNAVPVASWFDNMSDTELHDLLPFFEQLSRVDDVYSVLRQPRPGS

[20] = target: Beta-adrenergic receptor kinase 1 (Homo sapiens, UniProt P25098); experiment: aptamer displacement from bead-bound GRK2 – biochemical, cherry pick 1, bead flow cytometry, dose response (AID 504500)
Beta-adrenergic receptor kinase 1, sequence (P25098 whole entry): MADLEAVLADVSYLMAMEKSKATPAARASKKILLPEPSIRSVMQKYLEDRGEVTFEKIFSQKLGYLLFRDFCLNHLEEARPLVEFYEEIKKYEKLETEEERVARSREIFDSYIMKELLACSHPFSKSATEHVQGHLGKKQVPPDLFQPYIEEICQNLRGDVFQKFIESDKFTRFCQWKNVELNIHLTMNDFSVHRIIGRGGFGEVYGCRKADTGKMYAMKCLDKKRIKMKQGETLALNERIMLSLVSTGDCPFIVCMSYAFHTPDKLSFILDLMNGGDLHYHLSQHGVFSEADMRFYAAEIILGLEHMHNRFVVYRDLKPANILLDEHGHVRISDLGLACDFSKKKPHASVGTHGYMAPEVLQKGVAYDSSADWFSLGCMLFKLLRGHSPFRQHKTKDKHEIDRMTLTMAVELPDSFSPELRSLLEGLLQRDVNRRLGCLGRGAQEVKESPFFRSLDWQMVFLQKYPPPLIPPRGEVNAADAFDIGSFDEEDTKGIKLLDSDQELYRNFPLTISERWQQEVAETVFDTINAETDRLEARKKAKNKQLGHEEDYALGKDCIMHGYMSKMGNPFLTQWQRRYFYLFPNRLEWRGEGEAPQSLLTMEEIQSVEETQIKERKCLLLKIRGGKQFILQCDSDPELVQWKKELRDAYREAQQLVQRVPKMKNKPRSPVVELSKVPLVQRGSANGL

CCOC(=O)C1CCN(S(=O)(=O)c2c(Cl)ccc3nonc23)CC1
IC50 (CHO): 2.42 µM (active) | EC50 (BJ [1]): 0.318 µM (active) | EC50 (BJ [2]): 2.73 µM (inconclusive) | EC50 [3]: 2.75 µM (active) | EC50 (H4): > 120 µM (not active) | EC50 (BJ [4]): 2.84 µM (inconclusive) | AC50 [5]: 5.07 µM (active) | EC50 (BJ [6]): 6.08 µM (inconclusive) | IC50 (Beta Lactamase [7]): 26.8 µM (inactive) | AC50 [8]: 12.2 µM (active) | AC50 [9]: 4.78 µM (active) | AC50 [10]: 3.36 µM (active) | AC50 [11]: 1.77 µM (active) | EC50 [12]: > 120 µM (not active) | EC50 (Protein RecA): 14.4 µM (active) | IC50 [13]: 1.12 µM (active) | AC50 [14]: 1.97 µM (active) | EC50 [15]: > 120 µM (not active) | IC50 (Beta Lactamase [16]): 21.2 µM (inactive) | IC50 [17]: > 80 µM (inactive) | AC50 [18]: 0.919 µM (active)

CCCN(C(=O)c1cccc(-n2cccc2)c1)c1c(N)n(Cc2ccccc2)c(=O)[nH]c1=O
AC50 (Caspase-8): 58.8 µM (active) | AC50 (Caspase-7): > 70 µM (inactive) | AC50 (Caspase-6): 3.75 µM (active) | IC50 [19]: 6.44 µM (active) | EC50 [20]: 0.72 µM (active)
